The values below come from PMC7271668 (Frontiers in Pharmacology, 2020).

Structures are written as SMILES. Where “and” joins values, the source holds several entries; their conditions need not be identical. Equal entries are not always repeated.

The target in the first data set is T1, human OAT3 (Homo sapiens, UniProt Q8TCC7).
T1 sequence (Q8TCC7 1-542): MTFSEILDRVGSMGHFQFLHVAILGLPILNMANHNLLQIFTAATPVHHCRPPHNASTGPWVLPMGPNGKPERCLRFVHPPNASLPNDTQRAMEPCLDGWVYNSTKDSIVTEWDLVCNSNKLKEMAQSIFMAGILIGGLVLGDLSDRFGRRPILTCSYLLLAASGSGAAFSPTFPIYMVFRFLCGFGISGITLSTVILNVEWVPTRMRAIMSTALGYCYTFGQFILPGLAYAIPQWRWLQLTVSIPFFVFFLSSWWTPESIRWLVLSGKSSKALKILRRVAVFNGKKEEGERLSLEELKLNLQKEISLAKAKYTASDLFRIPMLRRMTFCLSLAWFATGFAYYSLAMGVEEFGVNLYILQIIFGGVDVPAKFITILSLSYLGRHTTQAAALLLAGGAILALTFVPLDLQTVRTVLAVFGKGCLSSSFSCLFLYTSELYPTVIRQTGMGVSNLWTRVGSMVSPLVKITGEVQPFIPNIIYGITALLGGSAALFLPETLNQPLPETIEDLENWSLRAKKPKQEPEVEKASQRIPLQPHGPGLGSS
Description: Enalaprilat uptake kinetics in HEK293 cells overexpressing human OAT3. It counts as in vitro ADME. Further details: expressed in transfected cells; gift of Prof; Dafang Zhong, Shanghai Institute of Materia Medica. The settings on record: OAT3-transfected HEK293, Supplementary Figure 1. On the procedure:
Human embryonic kidney 293 (HEK293) cells stably overexpressing human OAT1, OAT3, organic cation transporter 2 (OCT2), OATP1B1, OATP1B3 or OATP2B1 as well as empty vectors were generously provided by Professor Dafang Zhong, Shanghai Institute of Materia Medica, Chinese Academy of Sciences (Shanghai, China). Respective transport activities had been validated using specific probe substrates ([Zhong et al., 2014]). All cells were grown in DMEM supplemented with 10% FBS, at 37°C with 5% CO2 and 95% humidity.
Cells were seeded in 24-well plates at a density of 200,000 cells per well and cultured in high glucose DMEM for 48 h. On the third day and prior to the start of the uptake experiment, cells were washed thrice with pre-warmed HBSS and then incubated with HBSS for 30 min at 37°C. […] Incubations were terminated 5 min after the addition of substrate by washing with ice-cold HBSS. Cells were immediately lysed with 200 μl ultrapure water by repeated freezing and thawing up to three times. Intracellular drug concentrations were determined using a liquid chromatography - tandem mass spectrometry (LC-MS/MS) method. Cellular protein levels were estimated using the Bicinchoninine acid assay per manufacturer’s instruction (Takara, Japan).
Kinetic parameters of transporter-mediated uptake were estimated by nonlinear regression analysis using GraphPad Prism 5.01 (La Jolla, CA, USA). […]
In the case of `CCOC(=O)[C@H](CCc1ccccc1)N[C@@H](C)C(=O)N1CCC[C@H]1C(=O)O` [Enalapril], the “Transport by OAT3 (substrate status)” value is listed as “could also be transported by OAT3”.

Another data set has as its system OAT4.
Assay: not given
Details: method as in Tan et al., 2017. The settings on record: ref Tan et al., 2017; cited from earlier work.
For the compound `CC(C)(Sc1ccncc1-c1ccc(C#N)c2ccccc12)C(=O)O` [Verinurad], the “Affinity for OAT4, fold lower as compared to URAT1” value is recorded as “approximately 200 fold”.

For another data set, the system named is OAT3.
Assay: not given
Particulars: cited from earlier work.
Consider `C=C1CC23CCC4C(C)(C(=O)OC5OC(C(=O)O)C(O)C(O)C5O)CCCC4(C)C2CCC1(O)C3` (stereo not shown) [steviol acyl glucuronide], for which the Michaelis constant (Km) was 368 µM.

The same data set, now with this note: read-out: Km as OAT3 substrate; ref Cutler et al., 2012; cited from earlier work.
Take `O=S(=O)(O)CCS` [mesna]: the Michaelis-Menten constant (Km) is 390 µM.

The same data set, now with this note: read-out: Km as OAT3 substrate; ref Parvez et al., 2018; cited from earlier work.
`NNC(=O)c1ccncc1` [isoniazid]: the Km was 234 µM.

Test system in another data set: not given
Assay: not given
Particulars: after enalapril administration; ref Li et al., 2017; cited from earlier work.
With `CCOC(=O)[C@H](CCc1ccccc1)N[C@@H](C)C(=O)N1CCC[C@H]1C(=O)O` [Enalapril], the “Plasma exposure, fold lower than that of enalaprilat” value is listed as “about 4.5 fold”.

Staying with this data set, now noted: after oral administration of enalapril; ref Ulm et al., 1982; MacFadyen et al., 1993; cited from earlier work.
As to `CCOC(=O)[C@H](CCc1ccccc1)N[C@@H](C)C(=O)N1CCC[C@H]1C(=O)O` [Enalapril], the “Excreted into the urine, % of the dose” value is 18 % of the dose.

Staying with this data set, now noted: oral enalapril, dose 10 mg, man; ref Ulm et al., 1982; cited from earlier work.
For the compound `CCOC(=O)[C@H](CCc1ccccc1)N[C@@H](C)C(=O)N1CCC[C@H]1C(=O)O` [Enalapril], the “Fraction of the dose converted to enalaprilat” value is “about 40%”.

The target in another data set is T1, human OAT3. Briefly: Inhibition of OAT3-mediated enalaprilat uptake in OAT3-transfected HEK293 cells.
Conditions: not given
Here is the method:
Because the present study examined a number of compounds with structural diversity, a 30 min preincubation was carried out for all compounds in order to eliminate inconsistencies. […] OAT3-transfected HEK293 cells or mock cells were washed thrice with pre-warmed HBSS and preincubated with HBSS containing different concentrations of inhibitors for 30 min at 37°C.
For sample preparation before analysis, 100 μl acetonitrile containing 500 nM tolbutamide (internal standard, IS) was added as a protein-precipitating agent to 50-μl cell samples. All samples were vortexed for 2 min and centrifuged at 13,000 rpm for 10 min. Ten microliters of the supernatants were transferred into injection vials for concentration determination.
The LC-MS/MS system consisted of an API 4000 Qtrap mass spectrometer equipped with a turbo-V ionization source (Applied Biosystems, Foster City, CA, USA), two LC-20AD pumps with a CBM-20A controller, a DGU-20A solvent degasser, and a SIL-20A autosampler (Shimadzu, Columbia, MD, USA). A reverse phase C18 column (50×2.1 mm, 5 µm particle size; Agela, China) and a gradient elution at 0.3 ml/min were employed for chromatographic separation. […] Analyst 1.6.3 (AB SCIEX, USA) was used to collect and process the data.
where I was the inhibitor concentration.
The compound `O=c1cc(-c2ccc(O)cc2)oc2cc(O)cc(O)c12` [Apigenin] registered an IC50 of 330 ± 90 nM.
Same read-out and setting: with `O=c1cc(-c2ccc(O)cc2)oc2cc(O[C@@H]3O[C@H](CO)[C@@H](O)[C@H](O)[C@H]3O)cc(O)c12` [Apigetrin] the figure was 7800 ± 4030 nM; with `O=c1cc(-c2ccccc2)oc2cc(O)cc(O)c12` [Chrysin], 44 ± 13 nM.
Still for that read-out and setting: with `O=c1c(-c2ccc(O)cc2)coc2cc(O)ccc12` [Daidzein] the figure was 5800 ± 3960 nM; with `O=C1C[C@@H](c2ccc(O)c(O)c2)Oc2cc(O)cc(O)c21` [Eriodictyol], 1480 ± 600 nM; with `O=c1c(O)c(-c2ccc(O)c(O)c2)oc2cc(O)ccc12` [Fisetin], 3820 ± 1600 nM.
Regarding `O=c1c(O)c(-c2ccccc2)oc2cc(O)cc(O)c12` [Galangin], it took 30 ± 26 nM to reach half-maximal inhibition (IC50).
The compound `O=c1c(O)c(-c2ccc(O)c(O)c2)oc2c(O)c(O)cc(O)c12` [Gossypetin] had an IC50 of 710 ± 80 nM.
On the same count and under the same terms, the same measure for `O=c1c(O[C@@H]2O[C@H](CO)[C@@H](O)[C@H](O)[C@H]2O)c(-c2ccc(O)c(O)c2)oc2cc(O)cc(O)c12` [Isoquercetin]: 11700 ± 2060 nM; for `O=c1c(O)c(-c2ccc(O)cc2)oc2cc(O)cc(O)c12` [Kaempferol]: 88 ± 14 nM; for `O=c1cc(-c2ccc(O)c(O)c2)oc2cc(O)cc(O)c12` [Luteolin]: 660 ± 110 nM.
The same measure, in the same setting: with `CC(C)=CCc1c(-c2ccc(O)cc2O)oc2c(CC=C(C)C)c(O)cc(O)c2c1=O` [Mulberrin] the figure was 1220 ± 180 nM.
The same measure, in the same setting: the same measure for `O=c1c(O)c(-c2cc(O)c(O)c(O)c2)oc2cc(O)cc(O)c12` [Myricetin]: 22600 ± 6860 nM; for `COc1c(O)cc2oc(-c3ccccc3)cc(=O)c2c1O` [Oroxylin A]: 220 ± 120 nM.
In the case of `O=c1c(O)c(-c2ccc(O)c(O)c2)oc2cc(O)cc(O)c12` [Quercetin], 750 ± 370 nM corresponded to half-maximal inhibition (IC50).
Still for that read-out and setting: with `O=C1c2c(O)cc(O)cc2OC(c2ccc(O)c(O)c2)C1O` (stereo not shown) [Taxifolin] the figure was 7020 ± 3370 nM.
Still for that read-out and setting: the same measure for `COc1c(O)cc(O)c2c(=O)cc(-c3ccccc3)oc12` [Wogonin]: 240 ± 40 nM; for `COc1c(O[C@@H]2O[C@H](C(=O)O)[C@@H](O)[C@H](O)[C@H]2O)cc(O)c2c(=O)cc(-c3ccccc3)oc12` [Wogonoside]: 11700 ± 6290 nM.

The same data set, now with this note: IC50, inhibition of enalaprilat uptake by selected drugs, HEK293-OAT3, enalaprilat 30 µM, 30 min preincubation, mean ± sd of three incubations.
Take `CCc1oc2ccccc2c1C(=O)c1cc(Br)c(O)c(Br)c1` [Benzbromarone]: the IC50 was 140 nM and < 1000 nM.
On the same count and under the same terms, with `Cc1nc(-c2ccc(OCC(C)C)c(C#N)c2)sc1C(=O)O` [Febuxostat] the figure was 410 ± 50 nM; with `Cc1ccc(C)c(OCCCC(C)(C)C(=O)O)c1` [Gemfibrozil], 3500 ± 510 nM; with `CCC1=C(C)CN(C(=O)NCCc2ccc(S(=O)(=O)NC(=O)N[C@H]3CC[C@H](C)CC3)cc2)C1=O` [Glimepiride], 370 ± 40 nM.
Take `O=C(O)CSc1nnc(Br)n1-c1ccc(C2CC2)c2ccccc12` [Lesinurad]: the 50% inhibitory concentration (IC50) is 800 nM and < 1000 nM.
Same read-out and setting: with `CCOc1cc(CC(=O)N[C@@H](CC(C)C)c2ccccc2N2CCCCC2)ccc1C(=O)O` [Repaglinide] the figure was 2100 ± 310 nM; with `O=C1C(CC[S+]([O-])c2ccccc2)C(=O)N(c2ccccc2)N1c1ccccc1` (stereo not shown) [Sulfinpyrazone], 950 ± 370 nM.
Consider `CCCc1nc2c(C)cc(-c3nc4ccccc4n3C)cc2n1Cc1ccc(-c2ccccc2C(=O)O)cc1` [Telmisartan], for which the IC50 stood at 860 ± 220 nM.
Same read-out and setting: with `CCCCC(=O)N(Cc1ccc(-c2ccccc2-c2nnn[nH]2)cc1)[C@H](C(=O)O)C(C)C` [Valsartan] the figure was 900 ± 90 nM.
Take `CC(C)(Sc1ccncc1-c1ccc(C#N)c2ccccc12)C(=O)O` [Verinurad]: the IC50 is 800 nM and < 1000 nM.

A further data set has as its system OAT1.
Assay: not given
Details: method as in Tan et al., 2017. The settings on record: ref Tan et al., 2017; cited from earlier work.
`CC(C)(Sc1ccncc1-c1ccc(C#N)c2ccccc12)C(=O)O` [Verinurad]: the “Affinity for OAT1, fold lower as compared to URAT1” value is “approximately 200 fold”.

As a reminder, the Km is the concentration of substrate that gives half-maximal velocity. One may read the IC50 as the concentration that gives 50% inhibition. Low values mean higher potency, high ones lower potency.
